Species on record: Rattus norvegicus
Assay: Open TG-GATES - Regimen: Single
Assay type: toxicity, organism-based, Sprague-Dawley
Design: regimen Single, gender Male, age 6 weeks
Details: in vivo, po, 100 mg/kg, route gavage, dose level Middle; for APTT / Bas / Eos / Fbg / Hb / Ht / Lym / MCH / MCHC / MCV / Mono / Neu / PT / Plat / RBC / Ret / WBC: tissue Blood; for KIDNEY_L / KIDNEY_R / KIDNEY_TOTAL: tissue Kidney; for LIVER: tissue Liver; for A/G / ALP / ALT / AST / BUN / CRE / Ca / Cl / DBIL / GLC / IP / K / LDH / Na / PL / RALB / TBIL / TC / TG / TP / gamma-GTP: tissue Plasma

Cc1cccc(Nc2ccccc2C(=O)O)c1C [MEFENAMIC ACID]
TERMINAL_BW (3 h): 218.5 g | APTT (3 h): 19.2 s | Bas (3 h): 0% | Eos (3 h): 0.8% | Fbg (3 h): 218.2 mg/dL | Hb (3 h): 13.3 g/dL | Ht (3 h): 37.3% | Lym (3 h): 80% | MCH (3 h): 21.8 pg | MCHC (3 h): 35.5% | MCV (3 h): 61.4 fL | Mono (3 h): 2.2% | Neu (3 h): 15% | PT (3 h): 12.2 s | Plat (3 h): 114.3 x10_4/uL | RBC (3 h): 608.6 x10_4/ul | Ret (3 h): 7.4% | WBC (3 h): 104.3 x10_2/uL | KIDNEY_L (3 h): 1 g | KIDNEY_R (3 h): 1 g | KIDNEY_TOTAL (3 h): 1.9 g | LIVER (3 h): 9.9 g | A/G (3 h): 1.6 | ALP (3 h): 1058 IU/L | ALT (3 h): 37.6 IU/L | AST (3 h): 67.8 IU/L | BUN (3 h): 12.4 mg/dL | CRE (3 h): 0.4 mg/dL | Ca (3 h): 10.7 mg/dL | Cl (3 h): 103.4 meq/L | DBIL (3 h): 0.074 mg/dL | GLC (3 h): 196.8 mg/dL | IP (3 h): 8.6 mg/dL | K (3 h): 4.1 meq/L | LDH (3 h): 184 IU/L | Na (3 h): 140.8 meq/L | PL (3 h): 141.4 mg/dL | RALB (3 h): 3.4 g/dL | TBIL (3 h): 0.1 mg/dL | TC (3 h): 78.6 mg/dL | TG (3 h): 43.4 mg/dL | TP (3 h): 5.5 g/dL | gamma-GTP (3 h): 1.6 IU/L | TERMINAL_BW (6 h): 215.4 g | APTT (6 h): 18.2 s | Bas (6 h): 0% | Eos (6 h): 1% | Fbg (6 h): 225.6 mg/dL | Hb (6 h): 13 g/dL | Ht (6 h): 37.2% | Lym (6 h): 76.2% | MCH (6 h): 21.7 pg | MCHC (6 h): 35.1% | MCV (6 h): 61.8 fL | Mono (6 h): 2.6% | Neu (6 h): 18.6% | PT (6 h): 12.6 s | Plat (6 h): 108.7 x10_4/uL | RBC (6 h): 602.4 x10_4/ul | Ret (6 h): 7.6% | WBC (6 h): 76.8 x10_2/uL | KIDNEY_L (6 h): 1 g | KIDNEY_R (6 h): 1 g | KIDNEY_TOTAL (6 h): 2 g | LIVER (6 h): 9.6 g | A/G (6 h): 1.6 | ALP (6 h): 782.4 IU/L | ALT (6 h): 36.8 IU/L | AST (6 h): 64.2 IU/L | BUN (6 h): 11 mg/dL | CRE (6 h): 0.3 mg/dL | Ca (6 h): 10.5 mg/dL | Cl (6 h): 103 meq/L | DBIL (6 h): 0.064 mg/dL | GLC (6 h): 185.4 mg/dL | IP (6 h): 9 mg/dL | K (6 h): 4.1 meq/L | LDH (6 h): 160.4 IU/L | Na (6 h): 139.8 meq/L | PL (6 h): 139.6 mg/dL | RALB (6 h): 3.3 g/dL | TBIL (6 h): 0.1 mg/dL | TC (6 h): 77.6 mg/dL | TG (6 h): 48.4 mg/dL | TP (6 h): 5.4 g/dL | gamma-GTP (6 h): 1.4 IU/L | TERMINAL_BW (9 h): 211.6 g | APTT (9 h): 17.9 s | Bas (9 h): 0% | Eos (9 h): 1% | Fbg (9 h): 216.4 mg/dL | Hb (9 h): 13.6 g/dL | Ht (9 h): 38.1% | Lym (9 h): 77.2% | MCH (9 h): 22.3 pg | MCHC (9 h): 35.8% | MCV (9 h): 62.4 fL | Mono (9 h): 2.2% | Neu (9 h): 18.2% | PT (9 h): 12.7 s | Plat (9 h): 112.5 x10_4/uL | RBC (9 h): 611 x10_4/ul | Ret (9 h): 7.2% | WBC (9 h): 77.1 x10_2/uL | KIDNEY_L (9 h): 0.9 g | KIDNEY_R (9 h): 0.9 g | KIDNEY_TOTAL (9 h): 1.8 g | LIVER (9 h): 8.6 g | A/G (9 h): 1.6 | ALP (9 h): 955.2 IU/L | ALT (9 h): 30.8 IU/L | AST (9 h): 61.6 IU/L | BUN (9 h): 12.2 mg/dL | CRE (9 h): 0.4 mg/dL | Ca (9 h): 10.4 mg/dL | Cl (9 h): 103 meq/L | DBIL (9 h): 0.06 mg/dL | GLC (9 h): 196.2 mg/dL | IP (9 h): 9.4 mg/dL | K (9 h): 3.7 meq/L | LDH (9 h): 184.6 IU/L | Na (9 h): 140.2 meq/L | PL (9 h): 127.8 mg/dL | RALB (9 h): 3.4 g/dL | TBIL (9 h): 0.1 mg/dL | TC (9 h): 72.4 mg/dL | TG (9 h): 29.6 mg/dL | TP (9 h): 5.5 g/dL | gamma-GTP (9 h): 1 IU/L | TERMINAL_BW (24 h): 227 g | APTT (24 h): 17.3 s | Bas (24 h): 0% | Eos (24 h): 1% | Fbg (24 h): 209.2 mg/dL | Hb (24 h): 13 g/dL | Ht (24 h): 37.3% | Lym (24 h): 72.6% | MCH (24 h): 22.1 pg | MCHC (24 h): 35% | MCV (24 h): 63.2 fL | Mono (24 h): 2.8% | Neu (24 h): 21.2% | PT (24 h): 12.1 s | Plat (24 h): 119.7 x10_4/uL | RBC (24 h): 590.4 x10_4/ul | Ret (24 h): 7% | WBC (24 h): 99.5 x10_2/uL | KIDNEY_L (24 h): 1 g | KIDNEY_R (24 h): 1.1 g | KIDNEY_TOTAL (24 h): 2.1 g | LIVER (24 h): 11 g | A/G (24 h): 1.6 | ALP (24 h): 883 IU/L | ALT (24 h): 39.2 IU/L | AST (24 h): 67.2 IU/L | BUN (24 h): 14.2 mg/dL | CRE (24 h): 0.4 mg/dL | Ca (24 h): 10.9 mg/dL | Cl (24 h): 102.8 meq/L | DBIL (24 h): 0.092 mg/dL | GLC (24 h): 190.6 mg/dL | IP (24 h): 7.5 mg/dL | K (24 h): 4.3 meq/L | LDH (24 h): 196.4 IU/L | Na (24 h): 139.8 meq/L | PL (24 h): 151.8 mg/dL | RALB (24 h): 3.5 g/dL | TBIL (24 h): 0.1 mg/dL | TC (24 h): 81 mg/dL | TG (24 h): 88.8 mg/dL | TP (24 h): 5.6 g/dL | gamma-GTP (24 h): 1.4 IU/L
